Assay [1] deals with human Cav2.1 (α1A-2) channel alone. The class given is cell-based. Conditions: 50 µM.
For assay [2], the system named is human Cav2.3c (α1E-c) channel alone. It counts as cell-based. Conditions: 50 µM.
Assay [3] concerns Human Cav2.3d. The class given is cell-based. Conditions: 50 µM.
For assay [4], the system named is Human Cav2.3c. The class given is cell-based. Conditions: 50 µM.
In assay [5] the test system is Human Cav2.1. The class given is cell-based. The following applies: 50 µM.
In assay [6] the test system is Rabbit Cav2.1. It counts as cell-based. Conditions: 50 µM.
The subject of assay [7] is c-Src / human Cav2.1 channel and GABABR. It counts as cell-based.
Assay [8] relates to R-type current, rat DRG neurons. The class given is cell-based.
The subject of assay [9] is human Cav2.3c channel and GABABR.
Assay [10] concerns R-type current, thalamocortical neurons. The following applies: cited from earlier work.

With `NCC(CC(=O)O)c1ccc(Cl)cc1` (stereo not shown) [Baclofen, baclofen], the IBa inhibition in assay [1] was 0 (5) %; in assay [2], 0 (6) %; in assay [3], 33.1 ± 1.8 (8) %; in [4], 44.0 ± 3.0 (10) %; in [5], 44.4 ± 1.9 (9) %; in assay [6] it was “^#50.0 ± 5.0 (8) %”. Also, in [7], the “baclofen inhibition of IBa with wild-type c-Src overexpression or pp60c-Src peptide” value is reported as “did not affect baclofen inhibition of IBa”. The R-type current inhibition result in assay [8] is recorded as “R-type current inhibition by baclofen”. In addition, in [9], the “V0.5,act” value is on record as −3.44 ± 0.67 mV. Further, the R-type current modulation entry in assay [10] is “R-type current modulation by baclofen has been demonstrated”.

Values taken from paper PMC3971658 (The Journal of General Physiology, 2014).
